According to US8609690B2, “Aryl- and heteroarylcarbonyl derivatives of substituted nortropanes, medicaments containing such compounds and their use” (Boehringer Ingelheim International GmbH, priority 2008, dated 2013):

What follows are molecules tested against T1, 11β-HSD 1 (Homo sapiens, UniProt P28845) (assay: In vitro inhibition of 11β-HSD 1, HTRF detection of cortisol generated by human liver microsomes). Settings: 1 μM test compound, 100% indicates no inhibition, zero or below zero indicates complete inhibition (relative to carbenoxolone).
T1 construct: detecting cortisol generated from cortisterone by human liver microsomes; from tissue; host or cells: human liver microsomes
Format: biochemical
Procedure: Briefly, compounds were incubated for 1 hour at 37° C. in Tris buffer (20 mM tris, 5 mM EDTA, pH 6.0) containing NADPH (200 μM) and cortisone (80 nM). Cortisol generated in the reaction is then detected with a competitive immunoassay, involving two HTRF conjugates: cortisol linked to XL665 and anti-cortisol antibody labeled with Europium cryptate. The incubation period for detection reaction was typically 2 hours. The amount of cortisol is determined by reading the time-resolved fluorescence of the wells (Ex 320/75 nm; Em 615/8.5 nm and 665/7.5 nm). The ratio of the two emission signals is then calculated (Em665*10000/Em615). […] Each assay also contained a calibration curve with cortisol to transform the fluorescent data into cortisol concentrations. Percent inhibition of each compound was determined relative to the carbenoxolone signal. In Table 2 the 11β-HSD 1 inhibitory activities at 1 μM concentration of test compound, determined as described above, of the compounds listed in Table 3 are compiled, wherein 100% indicates no inhibition and a value of zero or below zero indicates complete inhibition.

T1 sequence (P28845 whole entry): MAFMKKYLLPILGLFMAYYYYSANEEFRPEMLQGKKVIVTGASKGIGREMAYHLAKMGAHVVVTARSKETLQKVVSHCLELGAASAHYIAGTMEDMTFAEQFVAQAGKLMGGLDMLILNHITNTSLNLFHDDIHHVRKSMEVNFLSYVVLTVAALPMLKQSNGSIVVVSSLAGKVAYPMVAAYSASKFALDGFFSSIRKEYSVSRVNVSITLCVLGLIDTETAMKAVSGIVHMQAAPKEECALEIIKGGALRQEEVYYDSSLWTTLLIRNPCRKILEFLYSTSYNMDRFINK

Row | Structure (SMILES) | Inhibitory activity on 11β-HSD 1, % CTL [% CTL]
1 | N#Cc1cccc(C(=O)N2[C@@H]3CC[C@H]2C[C@@H](c2ccc(F)cc2)C3)c1 [Example 106, endo-3-[3-(4-Fluoro-phenyl)-8-aza-bicyclo[3.2.1]octane-8-carbonyl]-benzonitrile] | 75
2 | O=C(c1ccc2c(c1)OCCO2)N1C2CCC1CC(c1ccccc1F)C2 (stereo not shown) [Example 145, (2,3-Dihydro-benzo[1,4]dioxin-6-yl)-[3-(2-fluoro-phenyl)-8-aza-bicyclo[3.2.1]oct-8-yl]-methanone] | −37
3 | Cn1ccc2cc(C(=O)N3[C@@H]4CC[C@H]3C[C@@H](c3ccc(F)cc3)C4)ccc21 [Example 131, endo-[3-(4-Fluoro-phenyl)-8-aza-bicyclo[3.2.1]oct-8-yl]-(1-methyl-1H-indol-5-yl)-methanone] | −20
4 | O=C(c1cc(F)c(O)c(F)c1)N1[C@@H]2CC[C@H]1C[C@@H](c1ccc(F)cc1)C2 [Example 172, endo-(3,5-Difluoro-4-hydroxy-phenyl)-[3-(4-fluoro-phenyl)-8-aza-bicyclo[3.2.1]oct-8-yl]-methanone] | 0
5 | O=C(c1cc(F)cc(F)c1)N1[C@@H]2CC[C@H]1C[C@@H](c1ccc(F)cc1)C2 [Example 12, endo-(3,5-Difluoro-phenyl)-[3-(4-fluoro-phenyl)-8-aza-bicyclo[3.2.1]oct-8-yl]-methanone] | 85
6 | COc1ccc(C(=O)N2[C@@H]3CC[C@H]2C[C@@H](c2ccc(F)cc2)C3)cc1OC [Example 118, endo-(3,4-Dimethoxy-phenyl)-[3-(4-fluoro-phenyl)-8-aza-bicyclo[3.2.1]oct-8-yl]-methanone] | −28
7 | O=C(c1ccc2c(c1)OCCO2)N1[C@@H]2CC[C@H]1C[C@@H](c1ccc(F)cc1F)C2 [Example 160, endo-[3-(2,4-Difluoro-phenyl)-8-aza-bicyclo[3.2.1]oct-8-yl]-(2,3-dihydro-benzo[1,4]dioxin-6-yl)-methanone] | −26
8 | O=C(c1ccc2[nH]ncc2c1)N1[C@@H]2CC[C@H]1C[C@@H](c1ccc(F)cc1)C2 [Example 180, endo-[3-(4-Fluoro-phenyl)-8-aza-bicyclo[3.2.1]oct-8-yl]-(1H-indazol-5-yl)-methanone] | −41
9 | CC(=O)c1ccccc1C(=O)N1[C@@H]2CC[C@H]1C[C@@H](c1ccc(F)cc1)C2 [Example 126, endo-1-{2-[3-(4-Fluoro-phenyl)-8-aza-bicyclo[3.2.1]octane-8-carbonyl]-phenyl}-ethanone] | 63
10 | Cc1ccc([C@H]2C[C@H]3CC[C@@H](C2)N3C(=O)c2cscn2)cc1 [Example 13, endo-Thiazol-4-yl-(3-p-tolyl-8-aza-bicyclo[3.2.1]oct-8-yl)-methanone] | 62
11 | CC(C)(C)Oc1cccc(C(=O)N2[C@@H]3CC[C@H]2C[C@@H](c2ccc(F)cc2)C3)c1 [Example 45, endo-(3-tert-Butoxy-phenyl)-[3-(4-fluoro-phenyl)-8-aza-bicyclo[3.2.1]oct-8-yl]-methanone] | 82
12 | NS(=O)(=O)c1ccc(C(=O)N2[C@@H]3CC[C@H]2C[C@@H](c2ccc(F)cc2)C3)cc1 [Example 119, endo-4-[3-(4-Fluoro-phenyl)-8-aza-bicyclo[3.2.1]octane-8-carbonyl]-benzenesulfonamide] | 95
13 | O=C1NCCN1c1cccc(C(=O)N2[C@@H]3CC[C@H]2C[C@@H](c2ccc(F)cc2)C3)c1 [Example 60, endo-1-{3-[3-(4-Fluoro-phenyl)-8-aza-bicyclo[3.2.1]octane-8-carbonyl]-phenyl}-imidazolidin-2-one] | 63
14 | O=C(c1ccc2c(c1)OCCO2)N1[C@@H]2CC[C@H]1C[C@@H](c1ccc(F)cc1)C2 [Example 3, endo-(2,3-Dihydro-benzo[1,4]dioxin-6-yl)-[3-(4-fluoro-phenyl)-8-aza-bicyclo[3.2.1]oct-8-yl]-methanone] | −32
15 | COc1cc(C(=O)N2[C@@H]3CC[C@H]2C[C@@H](c2ccc(F)cc2)C3)cc(Cl)c1O [Example 175, endo-(3-Chloro-4-hydroxy-5-methoxy-phenyl)-[3-(4-fluoro-phenyl)-8-aza-bicyclo[3.2.1]oct-8-yl]-methanone] | −37
16 | Cc1nc2cc(C(=O)N3[C@@H]4CC[C@H]3C[C@@H](c3ccc(F)cc3)C4)ccc2c(=O)[nH]1 [Example 69, endo-7-[3-(4-Fluoro-phenyl)-8-aza-bicyclo[3.2.1]octane-8-carbonyl]-2-methyl-3H-quinazolin-4-one] | 93
17 | CC(C)CN1Cc2cccc(C(=O)N3[C@@H]4CC[C@H]3C[C@@H](c3ccc(F)cc3)C4)c2C1=O [Example 29, endo-7-[3-(4-Fluoro-phenyl)-8-aza-bicyclo[3.2.1]octane-8-carbonyl]-2-isobutyl-2,3-dihydro-isoindol-1-one] | 97
18 | Cc1cc2cc(C(=O)N3[C@@H]4CC[C@H]3C[C@@H](c3ccc(F)cc3)C4)ccc2[nH]1 [Example 50, endo-[3-(4-Fluoro-phenyl)-8-aza-bicyclo[3.2.1]oct-8-yl]-(2-methyl-1H-indol-5-yl)-methanone] | 6
19 | O=C(c1cccc2ncccc12)N1[C@@H]2CC[C@H]1C[C@@H](c1ccc(F)cc1)C2 [Example 37, endo-[3-(4-Fluoro-phenyl)-8-aza-bicyclo[3.2.1]oct-8-yl]-quinolin-5-yl-methanone] | 39
20 | O=C(c1ccc(Cl)cc1)N1[C@@H]2CC[C@H]1C[C@@H](c1ccc(F)cc1)C2 [Example 112, endo-(4-Chloro-phenyl)-[3-(4-fluoro-phenyl)-8-aza-bicyclo[3.2.1]oct-8-yl]-methanone] | 40
21 | N#Cc1ccc(C(=O)N2[C@@H]3CC[C@H]2C[C@@H](c2ccc(F)cc2)C3)cc1 [Example 105, endo-4-[3-(4-Fluoro-phenyl)-8-aza-bicyclo[3.2.1]octane-8-carbonyl]-benzonitrile] | 58
22 | Cc1[nH]c2cc(C(=O)N3[C@@H]4CC[C@H]3C[C@@H](c3ccc(F)cc3)C4)ccc2c1C [Example 52, endo-(2,3-Dimethyl-1H-indol-6-yl)-[3-(4-fluoro-phenyl)-8-aza-bicyclo[3.2.1]oct-8-yl]-methanone] | 82
23 | O=C1NCc2cccc(C(=O)N3[C@@H]4CC[C@H]3C[C@@H](c3ccc(F)cc3)C4)c21 [Example 95, endo-7-[3-(4-Fluoro-phenyl)-8-aza-bicyclo[3.2.1]octane-8-carbonyl]-2,3-dihydro-isoindol-1-one] | 92
24 | O=C(c1n[nH]c2c1CCCC2)N1[C@@H]2CC[C@H]1C[C@@H](c1ccc(F)cc1)C2 [Example 23, endo-[3-(4-Fluoro-phenyl)-8-aza-bicyclo[3.2.1]oct-8-yl]-(4,5,6,7-tetrahydro-1H-indazol-3-yl)-methanone] | 83
25 | Cn1c(=O)[nH]c2cc(C(=O)N3[C@@H]4CC[C@H]3C[C@@H](c3ccc(F)cc3)C4)ccc21 [Example 59, endo-5-[3-(4-Fluoro-phenyl)-8-aza-bicyclo[3.2.1]octane-8-carbonyl]-1-methyl-1,3-dihydro-benzoimidazol-2-one] | 95
26 | O=C(c1ccc2[nH]cnc2c1)N1[C@@H]2CC[C@H]1C[C@@H](c1ccc(F)cc1)C2 [Example 1, endo-(1H-Benzoimidazol-5-yl)-[3-(4-fluoro-phenyl)-8-aza-bicyclo[3.2.1]oct-8-yl]-methanone] | −18
27 | O=C(c1ccc(O)c(Cl)c1)N1[C@@H]2CC[C@H]1C[C@@H](c1ccc(F)cc1)C2 [Example 167, endo-(3-Chloro-4-hydroxy-phenyl)-[3-(4-fluoro-phenyl)-8-aza-bicyclo[3.2.1]oct-8-yl]-methanone] | −22
28 | O=C(O)c1ccc([C@H]2C[C@H]3CC[C@@H](C2)N3C(=O)c2ccc3c(c2)OCCO3)cc1 [Example 158, endo-4-[8-(2,3-Dihydro-enzo[1,4]dioxine-6-carbonyl)-8-aza-bicyclo[3.2.1]oct-3-yl]-benzoic acid] | 86
29 | O=C1CCCN1c1ccc(C(=O)N2[C@@H]3CC[C@H]2C[C@@H](c2ccc(F)cc2)C3)cc1 [Example 65, endo-1-{4-[3-(4-Fluoro-phenyl)-8-aza-bicyclo[3.2.1]octane-8-carbonyl]-phenyl}-pyrrolidin-2-one] | 33
30 | Cc1cccc(C(=O)N2[C@@H]3CC[C@H]2C[C@@H](c2ccc(F)cc2)C3)c1 [Example 99, endo-[3-(4-Fluoro-phenyl)-8-aza-bicyclo[3.2.1]oct-8-yl]-m-tolyl-methanone] | −39

Same assay, conditions: 1 μM test compound, 100% indicates no inhibition, zero or below zero indicates complete inhibition (relative to carbenoxolone), 1 µM

Row | Structure (SMILES) | Inhibitory activity on 11β-HSD 1, % CTL [% CTL]
31 | O=C(c1ccccn1)N1[C@@H]2CC[C@H]1C[C@@H](c1ccc(F)cc1)C2 [Example 18, endo-[3-(4-Fluoro-phenyl)-8-aza-bicyclo[3.2.1]oct-8-yl]-pyridin-2-yl-methanone] | 97
